According to the supplement of paper PMC10307832:

What was measured:
Experiment in all cases: relative viability (nuclei count vs DMSO), 5 days (fraction); higher = more cells survive
PC-14 = test system: PC-14
Outline: (§1)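 Relative viability is defined as nuclei in treated wells over nuclei in vehicle wells. Duplicate plates were run and medians reported. Lung cancer cell lines in 1536-well plates were dosed by pin tool one day after seeding, with one drug or with a fixed anchor-drug dose plus five library-drug doses (not always all listed) in √10 steps, and nuclei were counted after 5 days.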

LK-2 = test system: LK-2
Outline: as §1

NCI-H661 = test system: NCI-H661
Outline: as §1

NCI-H1993 = test system: NCI-H1993
Outline: as §1

ABC-1 = test system: ABC-1
Outline: as §1

A-427 = test system: A-427
Outline: as §1

NCI-H2405 = test system: NCI-H2405
Outline: as §1

NCI-H23 = test system: NCI-H23
Outline: as §1

NCI-H1755 = test system: NCI-H1755
Outline: as §1

NCI-H1793 = test system: NCI-H1793
Outline: as §1

LOU-NH91 = test system: LOU-NH91
Outline: as §1

LU99A = test system: LU99A
Outline: as §1

NCI-H2342 = test system: NCI-H2342
Outline: as §1

NCI-H1437 = test system: NCI-H1437
Outline: as §1

HARA = test system: HARA
Outline: as §1

BEN = test system: BEN
Outline: as §1

NCI-H2170 = test system: NCI-H2170
Outline: as §1

LCLC-103H = test system: LCLC-103H
Outline: as §1

NCI-H1666 = test system: NCI-H1666
Outline: as §1

NCI-H3122 = test system: NCI-H3122
Outline: as §1

NCI-H2085 = test system: NCI-H2085
Outline: as §1

LXF-289 = test system: LXF-289
Outline: as §1

RERF-LC-KJ = test system: RERF-LC-KJ
Outline: as §1

In the case of C=C1C(=O)O[C@@H](CCCCCCCC)[C@@H]1C(=O)O [C-75] + O=C(c1cc(Cc2n[nH]c(=O)c3ccccc23)ccc1F)N1CCN(C(=O)C2CC2)CC1 [Olaparib] (partner 8 µM), the relative viability (PC-14; first compound 0.08 µM) is reported as 0.276, the relative viability (PC-14; first compound 0.253 µM) is reported as 0.257 and the relative viability (PC-14; first compound 0.8 µM) is reported as 0.296. It also gave a relative viability (PC-14; first compound 2.53 µM) of 0.252, a relative viability (PC-14; first compound 8 µM) of 0.308 and a relative viability (LK-2; first compound 0.08 µM) of 0.674. The relative viability (LK-2; first compound 0.253 µM) was 0.84, the relative viability (LK-2; first compound 0.8 µM) was 0.64 and the relative viability (LK-2; first compound 2.53 µM) was 0.596. It also gave a relative viability (LK-2; first compound 8 µM) of 0.502, a relative viability (NCI-H661; first compound 0.08 µM) of 0.725 and a relative viability (NCI-H661; first compound 0.253 µM) of 0.805. It also gave a relative viability (NCI-H661; first compound 0.8 µM) of 0.693, a relative viability (NCI-H661; first compound 2.53 µM) of 0.66 and a relative viability (NCI-H661; first compound 8 µM) of 0.699. For the same compound, the relative viability (NCI-H1993; first compound 0.08 µM) was 1.02, the relative viability (NCI-H1993; first compound 0.253 µM) was 1.34 and the relative viability (NCI-H1993; first compound 0.8 µM) was 0.676. For the same compound, the relative viability (NCI-H1993; first compound 2.53 µM) was 1.05, the relative viability (NCI-H1993; first compound 8 µM) was 1.17 and the relative viability (ABC-1; first compound 0.08 µM) was 0.862. It also gave a relative viability (ABC-1; first compound 0.253 µM) of 0.703, a relative viability (ABC-1; first compound 0.8 µM) of 0.811 and a relative viability (ABC-1; first compound 2.53 µM) of 0.719. For the same compound, the relative viability (ABC-1; first compound 8 µM) was 0.792, the relative viability (A-427; first compound 0.08 µM) was 0.718 and the relative viability (A-427; first compound 0.253 µM) was 0.69. For the same compound, the relative viability (A-427; first compound 0.8 µM) was 0.678, the relative viability (A-427; first compound 2.53 µM) was 0.708 and the relative viability (A-427; first compound 8 µM) was 0.597. The relative viability (NCI-H2405; first compound 0.08 µM) was 0.808, the relative viability (NCI-H2405; first compound 0.253 µM) was 0.734 and the relative viability (NCI-H2405; first compound 0.8 µM) was 0.879. It also gave a relative viability (NCI-H2405; first compound 2.53 µM) of 0.803, a relative viability (NCI-H2405; first compound 8 µM) of 0.852 and a relative viability (NCI-H23; first compound 0.08 µM) of 0.364. The relative viability (NCI-H23; first compound 0.253 µM) was 0.334, the relative viability (NCI-H23; first compound 0.8 µM) was 0.239 and the relative viability (NCI-H23; first compound 2.53 µM) was 0.555. For the same compound, the relative viability (NCI-H23; first compound 8 µM) was 0.24, the relative viability (NCI-H1755; first compound 0.08 µM) was 0.93 and the relative viability (NCI-H1755; first compound 0.253 µM) was 0.872. For the same compound, the relative viability (NCI-H1755; first compound 0.8 µM) was 0.847, the relative viability (NCI-H1755; first compound 2.53 µM) was 0.797 and the relative viability (NCI-H1755; first compound 8 µM) was 0.846. For the same compound, the relative viability (NCI-H1793; first compound 0.08 µM) was 0.766, the relative viability (NCI-H1793; first compound 0.253 µM) was 0.988 and the relative viability (NCI-H1793; first compound 2.53 µM) was 0.705. It also gave a relative viability (NCI-H1793; first compound 8 µM) of 0.83, a relative viability (LOU-NH91; first compound 0.08 µM) of 0.909 and a relative viability (LOU-NH91; first compound 0.253 µM) of 0.786. It also gave a relative viability (LOU-NH91; first compound 0.8 µM) of 0.878, a relative viability (LOU-NH91; first compound 8 µM) of 0.88 and a relative viability (LU99A; first compound 0.08 µM) of 0.255. It also gave a relative viability (LU99A; first compound 0.253 µM) of 0.245, a relative viability (LU99A; first compound 0.8 µM) of 0.25 and a relative viability (LU99A; first compound 2.53 µM) of 0.245. It also gave a relative viability (LU99A; first compound 8 µM) of 0.205, a relative viability (NCI-H2342; first compound 0.08 µM) of 0.503 and a relative viability (NCI-H2342; first compound 0.253 µM) of 0.49. For the same compound, the relative viability (NCI-H2342; first compound 0.8 µM) was 0.374, the relative viability (NCI-H2342; first compound 2.53 µM) was 0.38 and the relative viability (NCI-H2342; first compound 8 µM) was 0.454. For the same compound, the relative viability (NCI-H1437; first compound 0.08 µM) was 0.614, the relative viability (NCI-H1437; first compound 0.253 µM) was 0.684 and the relative viability (NCI-H1437; first compound 0.8 µM) was 0.642. It also gave a relative viability (NCI-H1437; first compound 8 µM) of 0.648, a relative viability (HARA; first compound 0.08 µM) of 0.76 and a relative viability (HARA; first compound 0.253 µM) of 0.749. The relative viability (HARA; first compound 0.8 µM) was 1.04, the relative viability (HARA; first compound 2.53 µM) was 0.803 and the relative viability (HARA; first compound 8 µM) was 0.715. It also gave a relative viability (BEN; first compound 0.08 µM) of 1.22, a relative viability (BEN; first compound 0.253 µM) of 1.07 and a relative viability (BEN; first compound 0.8 µM) of 1.04. It also gave a relative viability (BEN; first compound 2.53 µM) of 0.771, a relative viability (BEN; first compound 8 µM) of 0.914 and a relative viability (NCI-H2170; first compound 0.08 µM) of 0.594. It also gave a relative viability (NCI-H2170; first compound 0.253 µM) of 0.633, a relative viability (NCI-H2170; first compound 0.8 µM) of 0.541 and a relative viability (NCI-H2170; first compound 2.53 µM) of 0.647. It also gave a relative viability (NCI-H2170; first compound 8 µM) of 0.627, a relative viability (LCLC-103H; first compound 0.08 µM) of 0.8 and a relative viability (LCLC-103H; first compound 0.253 µM) of 0.719. It also gave a relative viability (LCLC-103H; first compound 0.8 µM) of 0.697, a relative viability (LCLC-103H; first compound 2.53 µM) of 0.641 and a relative viability (LCLC-103H; first compound 8 µM) of 0.767. The relative viability (NCI-H1666; first compound 0.08 µM) was 0.681, the relative viability (NCI-H1666; first compound 0.253 µM) was 0.79 and the relative viability (NCI-H1666; first compound 0.8 µM) was 0.678. The relative viability (NCI-H1666; first compound 8 µM) was 0.653, the relative viability (NCI-H3122; first compound 0.08 µM) was 0.662 and the relative viability (NCI-H3122; first compound 0.253 µM) was 0.636. It also gave a relative viability (NCI-H3122; first compound 0.8 µM) of 0.567, a relative viability (NCI-H3122; first compound 2.53 µM) of 0.51 and a relative viability (NCI-H3122; first compound 8 µM) of 0.635. For the same compound, the relative viability (NCI-H2085; first compound 0.08 µM) was 0.766, the relative viability (NCI-H2085; first compound 0.253 µM) was 0.61 and the relative viability (NCI-H2085; first compound 0.8 µM) was 0.753. For the same compound, the relative viability (NCI-H2085; first compound 2.53 µM) was 0.681, the relative viability (NCI-H2085; first compound 8 µM) was 0.725 and the relative viability (LXF-289; first compound 0.08 µM) was 1.05. The relative viability (LXF-289; first compound 0.253 µM) was 1.11, the relative viability (LXF-289; first compound 0.8 µM) was 1.01 and the relative viability (LXF-289; first compound 2.53 µM) was 0.992. It also gave a relative viability (LXF-289; first compound 8 µM) of 1.06, a relative viability (RERF-LC-KJ; first compound 0.08 µM) of 1.02 and a relative viability (RERF-LC-KJ; first compound 0.253 µM) of 0.966. The relative viability (RERF-LC-KJ; first compound 0.8 µM) was 0.897, the relative viability (RERF-LC-KJ; first compound 2.53 µM) was 0.729 and the relative viability (RERF-LC-KJ; first compound 8 µM) was 0.797.
